Assay results: patent US12161688B2, “Treatment of inflammatory bowel disease with long acting glatiramer and adipose-derived stem cells” (STEM CELL MEDICINE LTD., priority 2016, dated 2024)

Test system: DSS-induced IBD
Assay: DSS-induced inflammatory bowel disease (acute colitis) in mice
Type: in vivo, C57BL/6 female mice
Protocol: Glatiramer acetate (GA) and GA Depot administration: […] GA Depot was suspended in sterile water for injection (WFI) (B Braun, Melsumgen, Germany) and injected intramuscularly (IM) at 10 mg dose (doses of GA Depot are given according to amount of active ingredient, i.e. GA Depot 10 mg contains 10 mg GA) divided to two 5 mg doses on days 0 and 1 due to technical reasons (volume limitation). Animals: All animal studies were approved by local ethics committees. C57BL/6 female mice, 7-9 weeks old were randomized into control or treatment groups with similar mean weight Animals were given food and water ad libitum throughout the experiment. Cell culture: SVF was plated at a density of 2×10^6 cells per 75 cm^2. Cells were grown to 80% confluency, trypsinized and sub-cultured up to passage 3-4. Cells were then collected and analyzed by FACS for the markers: […] The cells were stored frozen in liquid nitrogen until use. For use, the cells were thawed and plated at a concentration of 50,000 cells/cm^2 and incubated overnight. Prior to cells intraperitoneal (IP) injection the cells were trypsinized, counted and prepared for injection at a concentration of 1×10^6 cell/100 ul PBS and kept in ice until use for a period no longer than 30 min. Inflammatory bowel disease (IBD) induction: A widely used IBD model in mice is the dextran sulfate sodium (DSS)-induced colitis. DSS administration in the mice drinking water leads to many of the events presumed to initiate and sustain human IBD (Boismenu and Chen (2000) J Leukoc Biol, 67:267-278). […] In brief, body weight, rectal bleeding (observation of bleeding signs on the anus or gross bleeding), stool consistency and survival were monitored daily. […] Fourteen (14) days following disease induction, mice were sacrificed and the large intestine was collected and evaluated for colon length and microscopic colonic damage. […] Statistical analysis: Each data set was analyzed using single-factor analysis of variance (ANOVA) followed by two-tailed, two-sample students' T test assuming unequal variances, n=10/group, +/-standard error.

L-glutamic acid polymer with L-alanine, L-lysine and L-tyrosine, acetate (salt) [Copaxone®]
animals showing bleeding (Hemoccult test) (day 5): 50%
animals showing bleeding (Hemoccult test) (day 10): 20%
effect on IBD manifestations (overall conclusion) (mouse, in vivo): almost no effect
